Patent US8471005B2 (Cephalon, Inc., priority 2008, dated 2013)
Where two headings read alike, the source gives them in different places.

Columns and labels:
[1] = molecular target: T1, ALK (Homo sapiens, UniProt Q9UM73); test: ALK Kinase Assay (ELISA/TRF, PLC-γ substrate); type: biochemical; settings: read-out: ALK Potency
T1 construct: host or cells: baculovirus expression system
In short: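 Wells were coated with 10 μg/mL phospholipase C-γ substrate in TBS, and the reaction was started by adding 30 ng/ml ALK enzyme and run at 37° C for 15 minutes. Phosphorylated product was detected with Eu-N1-labeled PT66 antibody, and IC50 values came from sigmoidal variable-slope fits of percent inhibition against log concentration.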

[2] = molecular target: T2, JAK2 (Homo sapiens, UniProt O60674); test: Recombinant Human JAK2 Kinase Assay (TRF); type: biochemical; settings: read-out: JAK2 Potency
T2 construct: host or cells: baculovirus expression system
In short: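 Baculovirus-expressed JAK2 (15 ng/ml) phosphorylated a biotinylated 15-mer peptide captured on Neutravidin, in 20 mM HEPES pH 7.2, 0.2 μM ATP, 1 mM MnCl2, 0.1% BSA, 2.5% DMSO final, 20 min at room temperature. Phosphoproduct detected by time-resolved fluorescence with Eu-N1-labelled PY100 antibody.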

[3] = ALK kinase inhibition, 1 μM ATP
[4] = JAK2 kinase inhibition, 0.2 μM ATP

T2 sequence (O60674 whole entry): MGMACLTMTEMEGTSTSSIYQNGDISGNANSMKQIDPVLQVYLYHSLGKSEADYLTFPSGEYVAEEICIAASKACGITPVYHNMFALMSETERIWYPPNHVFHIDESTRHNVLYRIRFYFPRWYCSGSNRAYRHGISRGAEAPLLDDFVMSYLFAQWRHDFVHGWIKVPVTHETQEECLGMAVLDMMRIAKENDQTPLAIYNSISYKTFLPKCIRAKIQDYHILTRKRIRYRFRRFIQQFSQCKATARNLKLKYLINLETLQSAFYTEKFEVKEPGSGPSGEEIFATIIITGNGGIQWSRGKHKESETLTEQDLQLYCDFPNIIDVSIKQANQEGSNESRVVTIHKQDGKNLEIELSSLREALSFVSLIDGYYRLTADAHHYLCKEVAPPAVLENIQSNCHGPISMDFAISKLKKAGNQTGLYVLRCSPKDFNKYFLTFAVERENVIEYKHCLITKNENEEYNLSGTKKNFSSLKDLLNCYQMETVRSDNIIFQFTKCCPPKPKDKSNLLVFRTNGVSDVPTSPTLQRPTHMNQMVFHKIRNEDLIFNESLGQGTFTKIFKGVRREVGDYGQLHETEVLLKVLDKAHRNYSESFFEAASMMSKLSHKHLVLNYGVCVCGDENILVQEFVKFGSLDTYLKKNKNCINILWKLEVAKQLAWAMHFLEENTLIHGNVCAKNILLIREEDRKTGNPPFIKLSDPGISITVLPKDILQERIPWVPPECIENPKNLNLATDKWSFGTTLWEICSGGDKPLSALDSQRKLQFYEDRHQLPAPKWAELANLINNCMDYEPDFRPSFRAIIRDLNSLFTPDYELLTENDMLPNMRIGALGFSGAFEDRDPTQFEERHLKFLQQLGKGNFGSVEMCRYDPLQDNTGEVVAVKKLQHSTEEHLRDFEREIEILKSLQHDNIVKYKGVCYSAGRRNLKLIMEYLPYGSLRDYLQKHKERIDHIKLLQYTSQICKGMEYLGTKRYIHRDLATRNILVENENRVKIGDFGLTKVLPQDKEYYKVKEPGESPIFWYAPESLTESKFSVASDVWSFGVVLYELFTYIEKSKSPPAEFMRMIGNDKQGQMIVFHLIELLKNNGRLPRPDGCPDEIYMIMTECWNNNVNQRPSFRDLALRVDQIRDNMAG
T1 sequence (Q9UM73 19-1620): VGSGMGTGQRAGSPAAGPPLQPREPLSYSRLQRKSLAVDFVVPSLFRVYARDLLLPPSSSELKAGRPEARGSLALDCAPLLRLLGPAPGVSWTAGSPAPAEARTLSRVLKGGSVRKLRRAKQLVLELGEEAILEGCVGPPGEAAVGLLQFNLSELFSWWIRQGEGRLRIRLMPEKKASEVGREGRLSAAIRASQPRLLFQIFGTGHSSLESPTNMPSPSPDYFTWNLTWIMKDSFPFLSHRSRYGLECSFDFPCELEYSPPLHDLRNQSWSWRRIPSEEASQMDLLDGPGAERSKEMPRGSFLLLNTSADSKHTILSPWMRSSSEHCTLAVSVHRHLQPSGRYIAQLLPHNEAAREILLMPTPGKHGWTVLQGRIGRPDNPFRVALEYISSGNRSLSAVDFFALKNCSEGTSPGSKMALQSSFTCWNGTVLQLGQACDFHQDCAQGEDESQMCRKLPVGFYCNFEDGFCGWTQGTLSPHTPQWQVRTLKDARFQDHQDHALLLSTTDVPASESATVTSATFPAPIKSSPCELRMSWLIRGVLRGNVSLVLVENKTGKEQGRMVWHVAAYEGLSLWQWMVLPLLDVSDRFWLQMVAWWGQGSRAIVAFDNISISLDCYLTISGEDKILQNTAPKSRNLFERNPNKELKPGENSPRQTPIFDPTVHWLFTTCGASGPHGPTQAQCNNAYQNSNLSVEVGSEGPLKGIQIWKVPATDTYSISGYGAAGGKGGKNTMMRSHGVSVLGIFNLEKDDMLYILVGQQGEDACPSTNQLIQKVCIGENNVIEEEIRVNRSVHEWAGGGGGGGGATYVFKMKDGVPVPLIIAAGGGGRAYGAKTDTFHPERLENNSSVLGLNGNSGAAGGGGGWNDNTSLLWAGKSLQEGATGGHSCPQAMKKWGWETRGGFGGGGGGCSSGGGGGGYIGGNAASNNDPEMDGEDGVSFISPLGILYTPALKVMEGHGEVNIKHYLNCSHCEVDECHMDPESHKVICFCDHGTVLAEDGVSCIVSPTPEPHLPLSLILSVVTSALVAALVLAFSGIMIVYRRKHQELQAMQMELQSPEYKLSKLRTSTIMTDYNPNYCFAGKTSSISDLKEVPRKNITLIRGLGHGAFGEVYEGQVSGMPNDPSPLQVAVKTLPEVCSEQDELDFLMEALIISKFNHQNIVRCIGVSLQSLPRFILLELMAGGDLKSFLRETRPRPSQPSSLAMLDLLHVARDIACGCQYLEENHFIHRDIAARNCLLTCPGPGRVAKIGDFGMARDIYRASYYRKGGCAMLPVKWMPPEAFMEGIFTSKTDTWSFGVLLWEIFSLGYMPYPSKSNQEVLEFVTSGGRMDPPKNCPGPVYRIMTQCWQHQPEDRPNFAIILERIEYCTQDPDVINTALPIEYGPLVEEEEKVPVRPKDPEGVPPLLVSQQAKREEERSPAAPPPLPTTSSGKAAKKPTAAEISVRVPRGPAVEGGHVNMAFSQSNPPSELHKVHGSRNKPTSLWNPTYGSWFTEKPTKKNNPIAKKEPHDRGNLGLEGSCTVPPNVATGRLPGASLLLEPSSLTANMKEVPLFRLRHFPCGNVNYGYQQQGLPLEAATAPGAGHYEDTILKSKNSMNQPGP

| IC50 [1, 3] | IC50 [2, 4] | IC50 ([1]; ALK Kinase Inhibition) | IC50 ([2]; JAK2 Kinase Inhibition) | Compound |
| --- | --- | --- | --- | --- |
| 100 to 1000 nM | < 100 nM | – | – | CN(c1ccccc1-c1ccc2cnc(Nc3ccc(-c4cccnc4)cc3)nn12)S(C)(=O)=O [Example 1092, N-Methyl-N-{2-[2-(4-pyridin-3-yl-phenylamino)-pyrrolo[2,1-f][1,2,4]triazin-7-yl]-phenyl}-methanesulfonamide] |
| 1000 to 10000 nM | < 100 nM | – | – | CC(C)(C)NS(=O)(=O)c1cccc(-c2ccc3cnc(Nc4ccc5cn[nH]c5c4)nn23)c1 [Example 1327, N-tert-Butyl-3-[2-(1H-indazol-6-ylamino)-pyrrolo[2,1-f][1,2,4]triazin-7-yl]-benzenesulfonamide] |
| < 100 nM | 100 to 1000 nM | – | – | COc1cc(C2CCN(CCO)CC2)ccc1Nc1ncc2ccc(-c3ccccc3N(C)S(C)(=O)=O)n2n1 [Example 793, N-[2-(2-{4-[1-(2-Hydroxy-ethyl)-piperidin-4-yl]-2-methoxy-henylamino}-pyrrolo[2,1-f][1,2,4]triazin-7-yl)-phenyl]-N-methyl-methanesulfonamide] |
| – | – | < 100 nM | 100 to 1000 nM | COc1cc(N2CCCC(N3CCN(C)CC3)C2)ccc1Nc1ncc2ccc(-c3ccccc3OC)n2n1 (stereo not shown) [Example 235, {2-Methoxy-4-[3-(4-methyl-piperazin-1-yl)-piperidin-1-yl]-phenyl}-[7-(2-methoxy-phenyl)-pyrrolo[2,1-f][1,2,4]triazin-2-yl]-amine] |
| – | – | < 100 nM | < 100 nM | CC(C)(O)CN1CCN(c2ccc(Nc3ncc4ccc(-c5cccc(Cl)c5)n4n3)cc2)CC1 [Example 223, 1-(4-{4-[7-(3-Chloro-phenyl)-pyrrolo[2,1-f][1,2,4]triazin-2-ylamino]-phenyl}-piperazin-1-yl)-2-methyl-propan-2-ol] |
| – | – | 100 to 1000 nM | 1000 to 10000 nM | COc1cc(N2CCC(N3CCN(C)CC3)CC2)ccc1Nc1ncc2cc3ccccc3n2n1 [Example 262, {2-Methoxy-4-[4-(4-methyl-piperazin-1-yl)-piperidin-1-yl]-phenyl}-[1,2,4]triazino[1,6-a]indol-2-yl-amine] |
| 100 to 1000 nM | < 100 nM | – | – | Fc1ncccc1-c1ccc2cnc(Nc3ccc(N4CCOCC4)cc3)nn12 [Example 1040, [7-(2-Fluoro-pyridin-3-yl)-pyrrolo[2,1-f][1,2,4]triazin-2-yl]-(4-morpholin-4-yl-phenyl)-amine] |
| 1000 to 10000 nM | < 100 nM | – | – | CN(c1ccccc1-c1ccc2cnc(Nc3cncc(C(N)=O)c3)nn12)S(C)(=O)=O [Example 666, 5-{7-[2-(Methanesulfonyl-methyl-amino)-phenyl]-pyrrolo[2,1-f][1,2,4]triazin-2-ylamino}-nicotinamide] |
| – | – | 100 to 1000 nM | < 100 nM | CS(=O)(=O)Nc1cccc(-c2ccc3cnc(Nc4cccc(N5CCOCC5)c4)nn23)c1 [Example 183, N-{3-[2-(3-Morpholin-4-yl-phenylamino)-pyrrolo[2,1-f][1,2,4]triazin-7-yl]-phenyl}-methanesulfonamide] |
| 100 to 1000 nM | 100 to 1000 nM | – | – | COc1cc(N2CCC(N3CCOCC3)CC2)ccc1Nc1ncc2ccc(-c3ccccc3[S+](C)[O-])n2n1 (stereo not shown) [Example 544, [7-(2-Methanesulfinyl-phenyl)-pyrrolo[2,1-f][1,2,4]triazin-2-yl]-[2-methoxy-4-(4-morpholin-4-yl-piperidin-1-yl)-phenyl]-amine] |
| < 100 nM | < 100 nM | – | – | COc1cc2c(cc1Nc1ncc3ccc(-c4ccccc4OC)n3n1)CN(C1CCN(C)CC1)C2 [Example 852, [6-Methoxy-2-(1-methyl-piperidin-4-yl)-2,3-dihydro-1H-isoindol-5-yl]-[7-(2-methoxy-phenyl)-pyrrolo[2,1-f][1,2,4]triazin-2-yl]-amine] |
| 100 to 1000 nM | 1000 to 10000 nM | – | – | COCCOc1ccccc1-c1ccc2cnc(Nc3ccc(C4CCN(CC(N)=O)CC4)cc3OC)nn12 [Example 1271, 2-[4-(3-Methoxy-4-{7-[2-(2-methoxy-ethoxy)-phenyl]-pyrrolo[2,1-f][1,2,4]triazin-2-ylamino}-phenyl)-piperidin-1-yl]-acetamide] |
| < 100 nM | < 100 nM | – | – | CCNS(=O)(=O)c1cccc(-c2ccc3cnc(Nc4ccc(C5CCN(C)CC5)cc4)nn23)c1 [Example 907, N-Ethyl-3-{2-[4-(1-methyl-piperidin-4-yl)-phenylamino]-pyrrolo[2,1-f][1,2,4]triazin-7-yl}-benzenesulfonamide] |
| > 10000 nM | 100 to 1000 nM | – | – | CN1CCN(c2cccc(Nc3ncc4ccc(NCc5ccncc5)n4n3)c2)CC1 [Example 1167, N(2)-[3-(4-Methyl-piperazin-1-yl)-phenyl]-N(7)-pyridin-4-ylmethyl-pyrrolo[2,1-f][1,2,4]triazine-2,7-diamine] |
| – | – | 100 to 1000 nM | < 100 nM | COc1cc(N2CCC(F)(F)CC2)ccc1Nc1ncc2ccc(-c3ccccc3OC)n2n1 [Example 1470, [4-(4,4-Difluoro-piperidin-1-yl)-2-methoxy-phenyl]-[7-(2-methoxy-phenyl)-pyrrolo[2,1-f][1,2,4]triazin-2-yl]-amine] |
| < 100 nM | 100 to 1000 nM | – | – | COc1cc2c(cc1Nc1ncc3ccc(-c4cccc(S(=O)(=O)NC(C)(C)C)c4)n3n1)CCN(C[C@H](C)O)CC2 [Example 701] |
| 100 to 1000 nM | < 100 nM | – | – | CC(C)(C)NS(=O)(=O)c1cccc(-c2ccc3cnc(Nc4ccc5c(c4)NC(=O)C5(C)C)nn23)c1 [Example 655, N-tert-Butyl-3-[2-(3,3-dimethyl-2-oxo-2,3-dihydro-1H-indol-6-ylamino)-pyrrolo[2,1-f][1,2,4]triazin-7-yl]-benzenesulfonamide] |
| – | – | 100 to 1000 nM | < 100 nM | CN(c1ccccc1-c1ccc2cnc(Nc3ccc4c(c3)NC(=O)C(C)(C)O4)nn12)S(C)(=O)=O [Example 1371, N-{2-[2-(2,2-Dimethyl-3-oxo-3,4-dihydro-2H-1,4-benzoxazin-6-ylamino)-pyrrolo[2,1-f][1,2,4]triazin-7-yl]-phenyl}-N-methyl-methanesulfonamide] |
| – | – | 100 to 1000 nM | < 100 nM | COc1cc(Nc2ncc3ccc(-c4cccc(S(C)(=O)=O)c4)n3n2)cc(OC)c1OC [Example 185, [7-(3-Methanesulfonyl-phenyl)-pyrrolo[2,1-f][1,2,4]triazin-2-yl]-(3,4,5-trimethoxy-phenyl)-amine] |
| 1000 to 10000 nM | < 100 nM | – | – | Cn1ncc2ccc(Nc3ncc4ccc(-c5cccc(S(=O)(=O)NC(C)(C)C)c5)n4n3)cc21 [Example 1317, N-tert-Butyl-3-[2-(1-methyl-1H-indazol-6-ylamino)-pyrrolo[2,1-f][1,2,4]triazin-7-yl]-benzenesulfonamide] |
| – | – | 100 to 1000 nM | < 100 nM | CN(c1ccccc1-c1ccc2cnc(Nc3ccc(N4CCN(CC(N)=O)CC4)c(F)c3)nn12)S(C)(=O)=O [Example 1422, 2-[4-(2-Fluoro-4-{7-[2-(methanesulfonyl-methyl-amino)-phenyl]-pyrrolo[2,1-f][1,2,4]triazin-2-ylamino}-phenyl)-piperazin-1-yl]-acetamide] |
| – | – | 100 to 1000 nM | < 100 nM | [7-(4-Methanesulfonyl-phenyl)-pyrrolo[2,1-f][1,2,4]triazin-2-yl]-(4-morpholin-4-yl-phenyl)-amine [Example 38] |
| 100 to 1000 nM | < 100 nM | – | – | CN(c1cccc(-c2ccc3cnc(Nc4ccc(C5CCN(CC(N)=O)CC5)cc4)nn23)c1)S(C)(=O)=O [Example 959, 2-[4-(4-{7-[3-(Methanesulfonyl-methyl-amino)-phenyl]-pyrrolo[2,1-f][1,2,4]triazin-2-ylamino}-phenyl)-piperidin-1-yl]-acetamide] |
| < 100 nM | 100 to 1000 nM | – | – | COc1cc(C2CCN(C[C@H](O)CO)CC2)ccc1Nc1ncc2ccc(-c3ccccc3N(C)S(C)(=O)=O)n2n1 [Example 769, N-[2-(2-{4-[1-((S)-2,3-Dihydroxy-propyl)-piperidin-4-yl]-2-methoxy-phenylamino}-pyrrolo[2,1-f][1,2,4]triazin-7-yl)-phenyl]-N-methyl-methanesulfonamide] |
| – | – | 100 to 1000 nM | < 100 nM | CN1CCN(c2ccc(Nc3ncc4c(Br)cc(-c5ccc(S(C)(=O)=O)cc5)n4n3)cc2)CC1 [Example 91, [5-Bromo-7-(4-methanesulfonyl-phenyl)-pyrrolo[2,1-f][1,2,4]triazin-2-yl]-[4-(4-methyl-piperazin-1-yl)-phenyl]-amine] |
| > 10000 nM | < 100 nM | – | – | c1cncc(-c2ccc3cnc(Nc4ccn(CCN5CCOCC5)n4)nn23)c1 [Example 1184, [1-(2-Morpholin-4-yl-ethyl)-1H-pyrazol-3-yl]-(7-pyridin-3-yl-pyrrolo[2,1-f][1,2,4]triazin-2-yl)-amine] |
| 1000 to 10000 nM | < 100 nM | – | – | CS(=O)(=O)N1CC=C(c2ccc3cnc(Nc4ccc(N5CCOCC5)cc4)nn23)CC1 [Example 1129, [7-(1-Methanesulfonyl-1,2,3,6-tetrahydro-pyridin-4-yl)-pyrrolo[2,1-f][1,2,4]triazin-2-yl]-(4-morpholin-4-yl-phenyl)-amine] |
| 100 to 1000 nM | < 100 nM | – | – | Cn1cc(-c2ccc3cnc(Nc4ccc5c(c4)CCC(N4CCOCC4)CC5)nn23)cn1 (stereo not shown) [Example 1201, [7-(1-Methyl-1H-pyrazol-4-yl)-pyrrolo[2,1-f][1,2,4]triazin-2-yl]-(7-morpholin-4-yl-6,7,8,9-tetrahydro-5H-benzocyclohepten-2-yl)-amine] |
| – | – | < 100 nM | < 100 nM | CN1CCN(c2ccc(Nc3ncc4ccc(-c5ccccc5Cl)n4n3)cc2)CC1 [Example 25, [7-(2-Chloro-phenyl)-pyrrolo[2,1-f][1,2,4]triazin-2-yl]-[4-(4-methyl-piperazin-1-yl)-phenyl]-amine] |
